Experimental data published in US9018236B2, “Cyclodextrin-based microemulsions, and dermatological uses thereof” (Precision Dermatology, Inc., priority 2012, dated 2015).

Assays:
[1] = cited from earlier work
[2] = Solubility/dispersibility of retinol in the Labrasol-HPGCD-water microemulsion system; format: physicochemical; settings: final retinol concentration 1.2%; 15% Labrasol, 5% HPGCD in water
From the text: Any two components (examples: Labrasol®-water, HPXCD-water, or Labrasol®-HPXCD) were mixed (in different ratios) in different scintillation vials and then the third component was titrated to each vial until a clear-to-turbid or turbid-to-clear transition occurred (in simple situations). Finally wt % percentages data for each component (Labrasol®, water, and cyclodextrin) were plotted to construct the ternary phase diagram.
Cyclodextrin used: hydroxypropyl-X-cyclodextrin (X=alpha, beta, or gamma).
Drug can be dissolved in the individual components or any of the two-component combination systems, followed by microemulsion formulation. Alternatively Drug can be directly added to the previously prepared microemulsion phase followed by shaking until a clear solution is achieved (when the achievable drug concentration is known previously).

miscibility in Labrasol-HPGCD-water microemulsion system [2]: complete miscibility
SMILES: CC1=C(/C=C/C(C)=C/C=C/C(C)=C/CO)C(C)(C)CCC1 [Retinol]
miscibility in water [1]: immiscible
